What is called pIC50 is the IC50 on a negative log10 scale, so that one unit is a factor of ten.

The structures appear in SMILES notation. pIC50: −log10 of the molar value. Some results are limits rather than exact numbers.

The results in this text go back to patent US12187712B2, “Cardiac sarcomere inhibitors” (Cytokinetics, Inc., priority 2018, dated 2025).

T1 sequence (Q9BE39 whole entry): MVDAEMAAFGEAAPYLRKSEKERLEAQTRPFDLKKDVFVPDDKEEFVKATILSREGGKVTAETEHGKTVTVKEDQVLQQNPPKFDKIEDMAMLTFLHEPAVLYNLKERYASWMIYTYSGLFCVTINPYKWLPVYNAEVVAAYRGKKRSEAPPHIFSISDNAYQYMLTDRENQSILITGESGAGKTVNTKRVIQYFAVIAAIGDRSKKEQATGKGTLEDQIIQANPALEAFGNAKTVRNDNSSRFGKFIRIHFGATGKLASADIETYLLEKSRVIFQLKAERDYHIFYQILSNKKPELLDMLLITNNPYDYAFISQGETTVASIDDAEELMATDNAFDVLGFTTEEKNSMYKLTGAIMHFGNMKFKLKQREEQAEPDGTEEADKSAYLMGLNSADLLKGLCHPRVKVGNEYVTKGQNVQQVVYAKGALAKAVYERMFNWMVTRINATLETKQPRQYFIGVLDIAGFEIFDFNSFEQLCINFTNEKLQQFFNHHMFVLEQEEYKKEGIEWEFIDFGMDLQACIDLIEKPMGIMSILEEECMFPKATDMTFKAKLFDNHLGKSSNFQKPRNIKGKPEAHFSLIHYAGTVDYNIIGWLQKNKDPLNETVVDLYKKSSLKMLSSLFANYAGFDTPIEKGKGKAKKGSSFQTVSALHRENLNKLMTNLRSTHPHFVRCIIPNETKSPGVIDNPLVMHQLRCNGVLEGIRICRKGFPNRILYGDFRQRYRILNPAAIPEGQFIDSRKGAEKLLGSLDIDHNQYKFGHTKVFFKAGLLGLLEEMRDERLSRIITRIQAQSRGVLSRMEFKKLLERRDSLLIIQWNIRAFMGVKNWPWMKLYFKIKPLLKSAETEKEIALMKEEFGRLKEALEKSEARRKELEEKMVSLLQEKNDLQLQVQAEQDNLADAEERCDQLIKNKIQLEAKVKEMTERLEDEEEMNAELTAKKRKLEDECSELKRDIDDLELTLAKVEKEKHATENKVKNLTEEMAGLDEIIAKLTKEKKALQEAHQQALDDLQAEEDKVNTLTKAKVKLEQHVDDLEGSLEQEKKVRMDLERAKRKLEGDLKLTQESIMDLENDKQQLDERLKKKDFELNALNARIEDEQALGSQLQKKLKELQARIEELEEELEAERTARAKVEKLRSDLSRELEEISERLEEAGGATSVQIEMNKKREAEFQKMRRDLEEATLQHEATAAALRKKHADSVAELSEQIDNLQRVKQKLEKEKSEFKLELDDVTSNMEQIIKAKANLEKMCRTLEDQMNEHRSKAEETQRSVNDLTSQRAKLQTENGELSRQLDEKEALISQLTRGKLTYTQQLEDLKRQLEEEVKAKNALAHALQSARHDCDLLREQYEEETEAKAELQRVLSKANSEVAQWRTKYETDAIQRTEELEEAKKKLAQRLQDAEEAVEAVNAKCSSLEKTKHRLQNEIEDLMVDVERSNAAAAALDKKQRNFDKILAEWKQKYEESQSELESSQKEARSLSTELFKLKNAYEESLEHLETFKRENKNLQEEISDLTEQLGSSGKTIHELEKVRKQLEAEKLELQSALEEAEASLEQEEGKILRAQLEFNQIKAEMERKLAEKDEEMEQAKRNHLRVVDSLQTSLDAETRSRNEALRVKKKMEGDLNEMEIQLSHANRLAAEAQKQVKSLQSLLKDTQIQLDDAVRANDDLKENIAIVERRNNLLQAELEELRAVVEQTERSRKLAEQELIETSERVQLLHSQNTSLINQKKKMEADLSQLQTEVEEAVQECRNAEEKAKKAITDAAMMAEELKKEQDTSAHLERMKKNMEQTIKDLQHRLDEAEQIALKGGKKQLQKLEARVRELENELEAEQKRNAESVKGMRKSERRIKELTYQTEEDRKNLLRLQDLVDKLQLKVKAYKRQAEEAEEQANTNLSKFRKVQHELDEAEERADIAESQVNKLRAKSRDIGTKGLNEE
T1 sequence (P85100 whole entry partner): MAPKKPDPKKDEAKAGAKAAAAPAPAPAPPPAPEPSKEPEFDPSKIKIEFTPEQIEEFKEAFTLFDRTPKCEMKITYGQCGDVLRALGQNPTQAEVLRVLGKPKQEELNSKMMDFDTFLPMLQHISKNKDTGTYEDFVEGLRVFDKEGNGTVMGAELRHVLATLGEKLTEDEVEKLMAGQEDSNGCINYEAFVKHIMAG
T1 sequence (Q3SZE5 whole entry partner): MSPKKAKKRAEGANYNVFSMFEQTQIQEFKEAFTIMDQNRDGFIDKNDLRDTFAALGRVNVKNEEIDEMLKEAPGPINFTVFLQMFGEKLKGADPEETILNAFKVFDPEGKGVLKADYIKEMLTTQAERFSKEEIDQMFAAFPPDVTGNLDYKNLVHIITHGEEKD

This experiment concerns the target T1, bovine cardiac myofibrils (Bos taurus, UniProt Q9BE39).
T1 construct: full-length cardiac myosin in the context of the native sarcomere, skinned myofibril assays were performed; from tissue; host or cells: bovine cardiac left ventricular tissue, detergent-skinned (Triton X-100) myofibrils
Briefly: Skinned myofibril ATPase assay (PK/LDH-coupled), CDMF75. The class given is biochemical. The conditions noted are these: inhibition of steady-state ATPase activity of bovine cardiac myofibrils at 75% Ca2+ activation (pCa75). The procedure: To evaluate the effect of compounds on the ATPase activity of full-length cardiac myosin in the context of the native sarcomere, skinned myofibril assays were performed. Bovine cardiac myofibrils were obtained by homogenizing bovine cardiac left ventricular tissue in the presence of a detergent such as triton X-100. Such treatment removes membranes and a majority of the soluble cytoplasmic proteins but leaves intact the cardiac sarcomeric acto-myosin apparatus. Myofibril preparations retain the ability to hydrolyze ATP in an Ca^2+ regulated manner. ATPase activities of such myofibril preparations in the presence and absence of compounds were assayed at Ca^2+ concentrations activating to a defined fraction of the maximal rate (i.e., 25%, 75%). Small molecule agents were assessed for their ability to inhibit the steady-state ATPase activity of bovine cardiac myofibrils using pyruvate kinase and lactate dehydrogenase (PK/LDH)-coupled enzyme system. This assay regenerates myosin-produced ADP into ATP by oxidizing NADH, producing an absorbance change at 340 nm. Prior to testing small molecule agents, the bovine cardiac myofibrils were assessed for their calcium responsiveness and the calcium concentration that achieves either a 50% (pCa50) or 75% (pCa75) activation of the myofibril system was chosen as the final condition for assessing the inhibitory activity of the small molecule agents. All enzymatic activity was measured in a buffered solution containing 12 mM PIPES (piperazine-N,N′-bis(2-ethanesulfonic acid), 2 mM magnesium chloride at pH 6.8 (PM 12 buffer). Final assay conditions were 1 mg/mL of bovine cardiac myofibrils, 4 U/mL pyruvate kinase, 6 U/mL lactate dehydrogenase, 50 μM ATP, 0.1 mg/mL BSA (bovine serum albumin), 10 ppm antifoam, 1 mM DTT, 0.5 mM NADH, 1.5 mM PEP, 0.6 mM EGTA, and an amount of CaCl2 sufficient to achieve either 50% or 75% activation of the myofibril ATPase activity. Results for compounds tested are provided in Table A. Compounds tested were prepared in accordance with the synthetic procedures described herein.
As for `C[C@@H](Nc1cnccn1)c1ccc(-c2noc(-c3ccccc3)n2)cc1` [Compound 37, (R)-N-(1-(4-(5-phenyl-1,2,4-oxadiazol-3-yl)phenyl)ethyl)pyrazin-2-amine], the “CDMF75 IC15” value came out at 1.3 µM and the pIC50 is 5.25.

In the case of `Cc1cc(-c2nc(-c3ccc([C@@H](C)Nc4cnccn4)cc3)no2)on1` [Compound 38, (R)-N-(1-(4-(5-(3-methylisoxazol-5-yl)-1,2,4-oxadiazol-3-yl)phenyl)ethyl)pyrazin-2-amine], the “CDMF75 IC15” value is 3.0 µM and the pIC50 is 4.72.

For the compound `C[C@@H](Nc1cnccn1)c1ccc(-c2noc(-c3ccco3)n2)cc1` [Compound 39, (R)-N-(1-(4-(5-(furan-2-yl)-1,2,4-oxadiazol-3-yl)phenyl)ethyl)pyrazin-2-amine], the “CDMF75 IC15” value was 0.2 µM and the pIC50 is 6.05.

Regarding `C[C@@H](Nc1cnccn1)c1ccc(-c2noc(-c3cccs3)n2)cc1` [Compound 40, (R)-N-(1-(4-(5-(thiophen-2-yl)-1,2,4-oxadiazol-3-yl)phenyl)ethyl)pyrazin-2-amine], the “CDMF75 IC15” value came out at 0.3 µM and the pIC50 is 5.96.

Consider `Cc1nc(-c2ccc(CNc3cnccn3)cc2F)no1` [Compound 41, N-(3-fluoro-4-(5-methyl-1,2,4-oxadiazol-3-yl)benzyl)pyrazin-2-amine], for which the “CDMF75 IC15” value was 0.7 µM and the negative-log IC50 (pIC50) was 5.41.

`Fc1cc(CNc2cnccn2)ccc1-c1noc(C(F)(F)F)n1` [Compound 42, N-(3-fluoro-4-(5-(trifluoromethyl)-1,2,4-oxadiazol-3-yl)benzyl)pyrazin-2-amine]: the “CDMF75 IC15” value was found to be 0.8 µM and the pIC50 was 5.32.

On to `C[C@@H](Nc1cnccn1)c1ccc(-c2noc(-c3ccsc3)n2)cc1` [Compound 43, (R)-N-(1-(4-(5-(thiophen-3-yl)-1,2,4-oxadiazol-3-yl)phenyl)ethyl)pyrazin-2-amine], for which the “CDMF75 IC15” value was determined as 0.4 µM and the pIC50 was 5.77.

For the compound `Cc1nc(-c2ccc(CNc3ccnc(Cl)c3)cc2)no1` [Compound 44, 2-chloro-N-(4-(5-methyl-1,2,4-oxadiazol-3-yl)benzyl)pyridin-4-amine], the “CDMF75 IC15” value was found to be 2.2 µM and the pIC50 was 4.96.

In the case of `Fc1cc(-c2noc(C(F)(F)F)n2)ccc1CNc1cnccn1` [Compound 45, N-(2-fluoro-4-(5-(trifluoromethyl)-1,2,4-oxadiazol-3-yl)benzyl)pyrazin-2-amine], the “CDMF75 IC15” value is 0.9 µM and the negative logarithm of the IC50 (pIC50) is 5.40.

For `Cc1nc(-c2ccc(CNc3cnccn3)c(F)c2)no1` [Compound 46, N-(2-fluoro-4-(5-methyl-1,2,4-oxadiazol-3-yl)benzyl)pyrazin-2-amine], the “CDMF75 IC15” value was determined as 0.4 µM and the negative-log IC50 (pIC50) is 5.66.

For the compound `Fc1cc(-c2noc(C3CC3)n2)ccc1CNc1cnccn1` [Compound 47, N-(4-(5-cyclopropyl-1,2,4-oxadiazol-3-yl)-2-fluorobenzyl)pyrazin-2-amine], the “CDMF75 IC15” value is 0.3 µM and the negative logarithm of the IC50 (pIC50) is 5.77.

With `Cc1cnc(-c2ccc(CNc3cnccn3)cc2)s1` [Compound 48, N-[[4-(5-methyl-1,3-thiazol-2-yl)phenyl]methyl]pyrazin-2-amine], the “CDMF75 IC15” value worked out at 4.0 µM and the negative-log IC50 (pIC50) was 4.72.

As to `Cc1cnc(-c2ccc(CNc3cnccn3)cc2)o1` [Compound 49, N-[[4-(5-methyl-1,3-oxazol-2-yl)phenyl]methyl]pyrazin-2-amine], the “CDMF75 IC15” value came to 0.3 µM and the pIC50 was 4.54.

For the compound `Cc1nc(-c2ccc(CNC(=O)c3ccccc3)cc2)no1` [Compound 50, N-(4-(5-methyl-1,2,4-oxadiazol-3-yl)benzyl)benzamide], the “CDMF75 IC15” value was determined as 3.4 µM and the pIC50 is 4.82.

Regarding `Cc1onc(-c2ccc(CNc3cnccn3)cc2)c1I` [Compound 51, N-(4-(4-iodo-5-methylisoxazol-3-yl)benzyl)pyrazin-2-amine], the “CDMF75 IC15” value amounted to 0.2 µM and the pIC50 was 6.05.

Regarding `Cc1cc(-c2ccc(CNc3cnccn3)cc2)on1` [Compound 53, N-(4-(3-methylisoxazol-5-yl)benzyl)pyrazin-2-amine], the “CDMF75 IC15” value is 2.1 µM and the pIC50 was 5.03.

With `COC(=O)NCc1ccc(-c2noc(C)n2)cc1` [Compound 54, methyl (4-(5-methyl-1,2,4-oxadiazol-3-yl)benzyl)carbamate], the “CDMF75 IC15” value stood at 6.0 µM and the pIC50 is 4.59.

Regarding `Cc1nc(-c2ccc3c(c2)CCC3Nc2cnccn2)no1` (centres unmarked) [Compound 55, N-[5-(5-methyl-1,2,4-oxadiazol-3-yl)-2,3-dihydro-1H-inden-1-yl]pyrazin-2-amine], the “CDMF75 IC15” value is 0.4 µM and the pIC50 was 5.89.

`Cc1nc(-c2ccc(CNC(=O)Nc3ccccc3)cc2)no1` [Compound 56, 3-[[4-(5-methyl-1,2,4-oxadiazol-3-yl)phenyl]methyl]-1-phenylurea]: the “CDMF75 IC15” value worked out at 1.2 µM and the pIC50 was 5.33.

As to `Cc1nc(-c2ccc(CNC(=O)OCc3ccccc3)cc2)no1` [Compound 57, benzyl (4-(5-methyl-1,2,4-oxadiazol-3-yl)benzyl)carbamate], the “CDMF75 IC15” value was found to be 3.1 µM and the pIC50 is 4.71.

`Cc1nc(-c2ccc(CNC(=O)Oc3ccccc3)cc2)no1` [Compound 58, phenyl (4-(5-methyl-1,2,4-oxadiazol-3-yl)benzyl)carbamate]: the “CDMF75 IC15” value stood at 2.3 µM and the pIC50 was 4.94.

`Cc1nc(-c2ccc3c(c2)CCCC3Nc2cnccn2)no1` (centres unmarked) [Compound 59, N-(6-(5-methyl-1,2,4-oxadiazol-3-yl)-1,2,3,4-tetrahydronaphthalen-1-yl)pyrazin-2-amine]: the “CDMF75 IC15” value worked out at 0.7 µM and the pIC50 was 5.66.

For `Cc1nc(-c2ccc(CNC(=O)c3ccnc(N)c3)cc2)no1` [Compound 60, 2-amino-N-[[4-(5-methyl-1,2,4-oxadiazol-3-yl)phenyl]methyl]pyridine-4-carboxamide], the “CDMF75 IC15” value amounted to 7.7 µM and the negative logarithm of the IC50 (pIC50) was 4.51.

For `Cc1cc(-c2ccc(CNc3cccc(=O)[nH]3)cc2)no1` [Compound 61, 6-([[4-(5-methyl-1,2-oxazol-3-yl)phenyl]methyl]amino)-1,2-dihydropyridin-2-one], the “CDMF75 IC15” value came out at 2.4 µM and the pIC50 is 4.99.

As for `Cc1cc(-c2ccc(CNc3cc[nH]n3)cc2)no1` [Compound 62, N-(4-(5-methylisoxazol-3-yl)benzyl)-1H-pyrazol-3-amine], the “CDMF75 IC15” value came to 5.0 µM and the negative logarithm of the IC50 (pIC50) was 4.64.

Regarding `Cc1nc(-c2ccc(CNC(=O)c3ccncc3O)cc2)no1` [Compound 63, 3-hydroxy-N-(4-(5-methyl-1,2,4-oxadiazol-3-yl)benzyl)isonicotinamide], the pIC50 was less than 4.41.

In the case of `Cc1cc(-c2ccc(CNc3ccn(C)n3)cc2)no1` [Compound 64, 1-methyl-N-(4-(5-methylisoxazol-3-yl)benzyl)-1H-pyrazol-3-amine], the “CDMF75 IC15” value turned out to be 7.7 µM and the negative-log IC50 (pIC50) was less than 4.41.

With `Cc1cc(-c2ccc(CNc3cc(=O)[nH]cn3)cc2)no1` [Compound 65, 6-((4-(5-methylisoxazol-3-yl)benzyl)amino)pyrimidin-4(3H)-one], the “CDMF75 IC15” value came out at 7.6 µM and the pIC50 is less than 4.41.

In the case of `COc1cc(NCc2ccc(-c3cc(C)on3)cc2)ncn1` [Compound 66, 6-methoxy-N-(4-(5-methylisoxazol-3-yl)benzyl)pyrimidin-4-amine], the “CDMF75 IC15” value was 0.3 µM and the pIC50 is 5.77.

As for `COc1cnc(NCc2ccc(-c3cc(C)on3)cc2)cn1` [Compound 67, 5-methoxy-N-(4-(5-methylisoxazol-3-yl)benzyl)pyrazin-2-amine], the “CDMF75 IC15” value was 0.4 µM and the pIC50 was 5.66.

For `Cc1cc(-c2ccc(CNc3cc(=O)cc[nH]3)cc2)no1` [Compound 68, 2-([[4-(5-methyl-1,2-oxazol-3-yl)phenyl]methyl]amino)-1,4-dihydropyridin-4-one], the “CDMF75 IC15” value is greater than 39.2 µM and the pIC50 is less than 4.41.

On to `Cc1coc(-c2ccc(CNc3cnccn3)cc2)n1` [Compound 69, N-[[4-(4-methyl-1,3-oxazol-2-yl)phenyl]methyl]pyrazin-2-amine], for which the “CDMF75 IC15” value was 18.4 µM and the pIC50 was less than 4.41.

As to `FC(F)(F)c1nc(-c2ccc(CNc3cnccn3)cc2)no1` [Compound 70, N-(4-(5-(trifluoromethyl)-1,2,4-oxadiazol-3-yl)benzyl)pyrazin-2-amine], the “CDMF75 IC15” value is 0.8 µM and the pIC50 is 5.39.
